Data: patent US20030021763A1, “Method for the treatment and/or prophylaxis of diseases caused by IL-12” (Gruenenthal GmbH., priority 1999, published 2003)
Several values for one entry are separate records, joined by “and”; a condition that tells them apart may be missing. Equal entries are not always repeated.

System: IL-12 production of LPS-activated monocytes
Test: Stimulation of human monocytes with lipopolysaccharide to secrete IL-12 (IL-12 sandwich ELISA of culture supernatants)
Format: cell-based
Conditions: for action on the IL-12 production of LPS-stimulated monocytes: Tables 2 to 4; for % inhibition of the IL-12 production of the control without inhibitors / IL-12 production / inhibition at 0.05 µg/mL / inhibition at 0.5 µg/mL / inhibition at 5 µg/mL: LPS 20 μg/ml, 24 hours; for inhibition at 0.05 µg/mL / inhibition at 0.5 µg/mL / inhibition at 5 µg/mL: Homo sapiens, Monocyte, read-out: % inhibition of the IL-12 production of the control without inhibitors
Protocol: Stimulation of Human Monocytes with Lipopolysaccharide to Secrete IL-12
Human monocytes were isolated from peripheral blood mononuclear cells (PBMC) which had been obtained from heparinized full blood by a Ficoll density gradient centrifugation. To that end, the PBMC were incubated with a monoclonal antibody directed against the monocyte-specific surface molecule CD14 and to which superparamagnetic microbeads (Miltenyi Biotech, Bergisch Gladbach) were coupled. For the positive selection of the labelled monocytes from the PBMC cell mixture, the total cell suspension was applied to a column having a ferromagnetic carrier matrix, and the column was placed in a magnetic field. The cells charged with microbeads were thus bonded to the carrier matrix, while unlabelled cells passed through the column and were discarded. After removing the matrix from the magnetic field, the antibody-charged cells were eluted by flushing the now demagnetised column with buffer. The purity of the resulting CD14-positive monocyte population was approximately from 95 to 98%. The monocytes were incubated for one hour at 37° C. and 5% CO2 in a density of 10^6cells/ml culture medium (RPMI, supplemented with 10% foetal calf serum) with the test substances dissolved in DMSO. 20 μg/ml of LPS from E. coli were then added. After 24 hours, cell-free culture supernatants were collected and tested for their IL-12 content.
The concentration of IL-12 in the cell culture supernatants was determined by sandwich ELISA's using two anti-IL-12 monoclonal antibodies (Biosource Europe, Fleurus, Belgium). A reference standard curve with human IL-12 was included. The detection limit of the IL-12 ELISA was 10 pg/ml.

[1] = test substance 0.005 μg/ml combined with IL-10 5 pg/ml
[2] = test substance 0.005 μg/ml combined with IL-10 50 pg/ml
[3] = test substance 0.005 μg/ml, IL-10 0 pg/ml
[4] = test substance 0.05 μg/ml combined with IL-10 5 pg/ml
[5] = test substance 0.05 μg/ml combined with IL-10 50 pg/ml
[6] = test substance 0.05 μg/ml, IL-10 0 pg/ml
[7] = test substance 0.5 μg/ml combined with IL-10 5 pg/ml
[8] = test substance 0.5 μg/ml combined with IL-10 50 pg/ml
[9] = test substance 0.5 μg/ml, IL-10 0 pg/ml
[10] = test substance 5 μg/ml, IL-10 0 pg/ml
[11] = test substance 5 μg/ml combined with IL-10 5 pg/ml
[12] = test substance 5 μg/ml combined with IL-10 50 pg/ml

Compound | action on the IL-12 production of LPS-stimulated monocytes | % inhibition of the IL-12 production of the control without inhibitors [4] [%] | IL-12 production [4] [pg/mL] | % inhibition of the IL-12 production of the control without inhibitors [5] [%] | IL-12 production [5] [pg/mL] | IL-12 production [6] [pg/mL] | % inhibition of the IL-12 production of the control without inhibitors [7] [%] | IL-12 production [7] [pg/mL] | % inhibition of the IL-12 production of the control without inhibitors [8] [%] | IL-12 production [8] [pg/mL] | IL-12 production [9] [pg/mL] | inhibition at 0.05 µg/mL [6] [%] | inhibition at 0.5 µg/mL [9] [%] | inhibition at 5 µg/mL [10] [%] | % inhibition of the IL-12 production of the control without inhibitors [11] [%] | IL-12 production [11] [pg/mL] | % inhibition of the IL-12 production of the control without inhibitors [12] [%] | IL-12 production [12] [pg/mL] | IL-12 production [10] [pg/mL] | other results
CC1(N2C(=O)c3ccccc3C2=O)CCC(=O)NC1=O (stereo not drawn) [EM 978, α-methyl thalidomide] | dose-dependent inhibitory action | 61 | 1897 | 68 | 1555 | 3161 | 94 | 272 | 96 | 191 | 439 | – | – | – | – | – | – | – | – | % inhibition of the IL-12 production of the control without inhibitors [1]: 40%; IL-12 production [1]: 2922 pg/mL; % inhibition of the IL-12 production of the control without inhibitors [2]: 53%; IL-12 production [2]: 2302 pg/mL; % inhibition of the IL-12 production of the control without inhibitors [3]: 7%; IL-12 production [3]: 4571 pg/mL; % inhibition of the IL-12 production of the control without inhibitors [6]: 35%; % inhibition of the IL-12 production of the control without inhibitors [9]: 91%; concentration lower than in the case of thalidomide or EM 12 to achieve the same effects (versus thalidomide or EM 12): 10 times lower
IL-10: anti-inflammatory cytokine originally described as cytokine synthesis inhibitory factor | dose-dependent inhibitory action | – | – | – | – | – | – | – | – | – | – | – | – | – | – | – | – | – | – | EC50: 0.05 ng/mL; IL-12 production (IL-10 5 pg/ml alone (thalidomide compound 0 μg/ml)): 5637 pg/mL and 4393 pg/mL and 4581 pg/mL; % inhibition of the IL-12 production of the control without inhibitors (IL-10 50 pg/ml alone (thalidomide compound 0 μg/ml)): 58% and 47% and 81%
O=C1CCC(N2C(=O)c3ccccc3C2=O)C(=O)N1 (centres unmarked) [Thalidomide, 2-(2,6-dioxo-piperidin-3-yl)-isoindole-1,3-dione, reference compound] | dose-dependent inhibitory action | 68 | 1958 | 87 | 809 | 3369 | 81 | 1147 | 90 | 618 | 2037 | 45 | 67 | 76 | 83 | 1057 | 93 | 447 | 1481 | –
O=C1CCC(N2Cc3ccccc3C2=O)C(=O)N1 (centres unmarked) [EM 12, 3-(1-oxo-1,3-dihydro-isoindol-2-yl)-piperidine-2,6-dione] | dose-dependent inhibitory action | 55 | 2944 | 91 | 589 | 3478 | 78 | 1462 | 90 | 649 | 2098 | 47 | 68 | 66 | 81 | 1271 | 92 | 546 | 2220 | –
